Measurements: patent US6737383B1, “Herbicidal oxadiazolidines” (priority 1999, dated 2004)

Experiments:
surinam grass = test: Test B pre/postemergence surinam grass; type: in vivo, Brachiaria decumbens
How it was run: (§1)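 Herbicidal effect was estimated by eye on a ten-point control scale after plants spent twelve to sixteen days in a greenhouse following soil or foliar treatment. Foliar sprays targeted plants at one to four leaves; all doses were formulated in a non-phytotoxic solvent with surfactant.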

giant foxtail = test: Test B pre/postemergence giant foxtail; type: in vivo, Setaria faberii
How it was run: as §1

rape = test: Test B pre/postemergence rape; type: in vivo, Brassica napus
How it was run: as §1

corn = test: Test B pre/postemergence corn; type: in vivo, Zea mays
How it was run: as §1

rice = test: Test B flood test rice; type: in vivo, Oryza sativa
How it was run: (§2)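 Read-out is a visual response score from 0 (no effect) to 10 (complete control), assigned by comparison with untreated controls. Treatment was applied at the 2-leaf stage, and plants stayed in the greenhouse for twelve to sixteen days before scoring.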

sugar beet = test: Test B pre/postemergence sugar beet; type: in vivo, Beta vulgaris
How it was run: as §1

morningglory = test: Test B pre/postemergence morningglory; type: in vivo, Ipomoea hederacea
How it was run: as §1

smallflower flatsedge = test: Test B flood test smallflower flatsedge; type: in vivo, Cyperus difformis
How it was run: as §2

pigweed = test: Test B pre/postemergence pigweed; type: in vivo, Amaranthus retroflexus
How it was run: as §1

bedstraw = test: Test B pre/postemergence bedstraw; type: in vivo, Galium aparine
How it was run: as §1

purple nutsedge = test: Test B pre/postemergence purple nutsedge; type: in vivo, Cyperus rotundus
How it was run: as §1

blackgrass = test: Test B pre/postemergence blackgrass; type: in vivo, Alopecurus myosuroides
How it was run: as §1

bamyardgrass = test: Test B flood test barnyardgrass; type: in vivo, Echinochloa crus-galli
How it was run: as §2

wild oat = test: Test B pre/postemergence wild oat; type: in vivo, Avena fatua
How it was run: as §1

crabgrass = test: Test B pre/postemergence crabgrass; type: in vivo, Digitaria sanguinalis
How it was run: as §1

wheat = test: Test B pre/postemergence wheat; type: in vivo, Triticum aestivum
How it was run: as §1

[1] = Postemergence, Rate 125 g/ha, scale of 0 to 10 where 0 is no effect and 10 is complete control
[2] = Preemergence, Rate 62 g/ha, scale 0 to 10 (0 no effect, 10 complete control)
[3] = Preemergence, Rate 125 g/ha, 0 is no effect, 10 is complete control
[4] = Preemergence, Rate 250 g/ha, scale 0 to 10, 0 is no effect, 10 is complete control
[5] = Preemergence, Rate 500 g/ha, scale 0 to 10 (0 no effect, 10 complete control)
[6] = Rate 62 g/ha, Postemergence, scale of 0 to 10 where 0 is no effect and 10 is complete control
[7] = Rate 250 g/ha, Postemergence, scale 0 to 10, 0 is no effect, 10 is complete control
[8] = Rate 500 g/ha, Postemergence, scale 0 to 10
[9] = Postemergence (flood test species), Rate 125 g/ha, scale of 0 to 10 where 0 is no effect and 10 is complete control
[10] = Rate 62 g/ha, Postemergence section, flood test species, scale of 0 to 10 where 0 is no effect and 10 is complete control
[11] = Rate 250 g/ha, Postemergence (flood test), scale 0 to 10, 0 is no effect, 10 is complete control
[12] = Rate 500 g/ha, listed under Postemergence (flood test species), scale 0 to 10

CC(C)N(C(=O)n1oc(=O)n(Cc2ccccc2Cl)c1=O)c1ccc(F)cc1 [Compound 140]
B. signalgrass plant response rating (surinam grass; [1]): 0
B. signalgrass plant response rating (surinam grass; [2]): 0
B. signalgrass plant response rating (0 to 10 scale) (surinam grass; [3]): 0
B. signalgrass plant response rating (surinam grass; [4]): 0
B. signalgrass plant response rating (surinam grass; [5]): 2
B. signalgrass plant response rating (surinam grass; [6]): 0
Plant response rating, B. signalgrass (surinam grass; [7]): 0
B. signalgrass plant response rating (surinam grass; Rate 500 g/ha, Postemergence, scale of 0 to 10 where 0 is no effect and 10 is complete control): 1
Giant foxtail plant response rating (giant foxtail; [1]): 1
Giant foxtail plant response rating (giant foxtail; [2]): 1
Giant foxtail plant response rating (0 to 10 scale) (giant foxtail; [3]): 8
Giant foxtail plant response rating (giant foxtail; [5]): 10
Giant foxtail plant response rating (giant foxtail; [6]): 0
Plant response rating, Giant foxtail (giant foxtail; [7]): 4
Giant foxtail plant response rating (giant foxtail; [8]): 6
Rape plant response rating (rape; [1]): 0
Rape plant response rating (rape; [2]): 0
Rape plant response rating (0 to 10 scale) (rape; [3]): 0
Rape plant response rating (rape; [4]): 0
Rape plant response rating (rape; [5]): 0
Rape plant response rating (rape; [6]): 0
Plant response rating, Rape (rape; [7]): 1
Rape plant response rating (rape; [8]): 2
Corn plant response rating (corn; [1]): 0
Corn plant response rating (corn; [2]): 0
Corn plant response rating (0 to 10 scale) (corn; [3]): 0
Corn plant response rating (corn; [4]): 0
Corn plant response rating (corn; [5]): 0
Corn plant response rating (corn; [6]): 0
Plant response rating, Corn (corn; [7]): 0
Corn plant response rating (corn; [8]): 0
Rice plant response rating (rice; [9]): 0
Rice plant response rating (rice; [10]): 0
Plant response rating, Rice (rice; [11]): 2
Rice plant response rating (rice; [12]): 4
Sugarbeets plant response rating (sugar beet; [1]): 0
Sugarbeets plant response rating (sugar beet; [2]): 0
Sugarbeets plant response rating (0 to 10 scale) (sugar beet; [3]): 0
Sugarbeets plant response rating (sugar beet; [4]): 0
Sugarbeets plant response rating (sugar beet; [5]): 1
Sugarbeets plant response rating (sugar beet; [6]): 0
Plant response rating, Sugarbeets (sugar beet; [7]): 0
Sugarbeets plant response rating (sugar beet; [8]): 0
Morningglory plant response rating (morningglory; [1]): 8
Morningglory plant response rating (morningglory; [2]): 0
Morningglory plant response rating (0 to 10 scale) (morningglory; [3]): 0
Morningglory plant response rating (morningglory; [4]): 0
Morningglory plant response rating (morningglory; [5]): 0
Morningglory plant response rating (morningglory; [6]): 4
Plant response rating, Morningglory (morningglory; [7]): 8
Morningglory plant response rating (morningglory; [8]): 8
S. Flatsedge plant response rating (smallflower flatsedge; [9]): 0
S. Flatsedge plant response rating (smallflower flatsedge; [10]): 0
Plant response rating, S. Flatsedge (smallflower flatsedge; [11]): 0
S. Flatsedge plant response rating (smallflower flatsedge; [12]): 0
Redroot pigweed plant response rating (pigweed; [1]): 1
Redroot pigweed plant response rating (pigweed; [2]): 0
Redroot pigweed plant response rating (0 to 10 scale) (pigweed; [3]): 0
Redroot pigweed plant response rating (pigweed; [4]): 0
Redroot pigweed plant response rating (pigweed; [5]): 0
Redroot pigweed plant response rating (pigweed; [6]): 0
Plant response rating, Redroot pigweed (pigweed; [7]): 2
Redroot pigweed plant response rating (pigweed; [8]): 3
Bedstraw plant response rating (bedstraw; [1]): 5
Bedstraw plant response rating (bedstraw; [2]): 0
Bedstraw plant response rating (0 to 10 scale) (bedstraw; [3]): 0
Bedstraw plant response rating (bedstraw; [4]): 0
Bedstraw plant response rating (bedstraw; [5]): 0
Bedstraw plant response rating (bedstraw; [6]): 4
Plant response rating, Bedstraw (bedstraw; [7]): 5
Bedstraw plant response rating (bedstraw; Rate 500 g/ha, Postemergence, scale 0 to 10, 0 no effect, 10 complete control): 6
Nutsedge plant response rating (purple nutsedge; [1]): 0
Nutsedge plant response rating (purple nutsedge; [2]): 0
Nutsedge plant response rating (0 to 10 scale) (purple nutsedge; [3]): 0
Nutsedge plant response rating (purple nutsedge; [4]): 0
Nutsedge plant response rating (purple nutsedge; [5]): 0
Nutsedge plant response rating (purple nutsedge; [6]): 0
Plant response rating, Nutsedge (purple nutsedge; [7]): 0
Nutsedge plant response rating (purple nutsedge; [8]): 0
Blackgrass plant response rating (blackgrass; [1]): 3
Blackgrass plant response rating (blackgrass; [2]): 0
Blackgrass plant response rating (0 to 10 scale) (blackgrass; [3]): 0
Blackgrass plant response rating (blackgrass; [4]): 4
Blackgrass plant response rating (blackgrass; [5]): 4
Blackgrass plant response rating (blackgrass; [6]): 3
Plant response rating, Blackgrass (blackgrass; [7]): 4
Blackgrass plant response rating (blackgrass; [8]): 6
Barnyardgrass plant response rating (bamyardgrass; [9]): 0
Barnyardgrass plant response rating (bamyardgrass; [10]): 0
Plant response rating, Barnyardgrass (bamyardgrass; [11]): 2
Barnyardgrass plant response rating (bamyardgrass; Rate 500 g/ha, listed under Postemergence (flood test species), scale 0 to 10, 0 no effect, 10 complete control): 8
Wild oats plant response rating (wild oat; [1]): 0
Wild oats plant response rating (wild oat; [2]): 0
Wild oats plant response rating (0 to 10 scale) (wild oat; [3]): 0
Wild oats plant response rating (wild oat; [4]): 1
Wild oats plant response rating (wild oat; [5]): 1
Wild oats plant response rating (wild oat; [6]): 0
Plant response rating, Wild oats (wild oat; [7]): 0
Wild oats plant response rating (wild oat; [8]): 1
Crabgrass plant response rating (crabgrass; [1]): 1
Crabgrass plant response rating (crabgrass; [2]): 4
Crabgrass plant response rating (0 to 10 scale) (crabgrass; [3]): 6
Crabgrass plant response rating (crabgrass; [4]): 5
Crabgrass plant response rating (crabgrass; [5]): 10
Crabgrass plant response rating (crabgrass; [6]): 0
Plant response rating, Crabgrass (crabgrass; [7]): 9
Crabgrass plant response rating (crabgrass; [8]): 9
Wheat plant response rating (wheat; [1]): 0
Wheat plant response rating (wheat; [2]): 0
Wheat plant response rating (0 to 10 scale) (wheat; [3]): 0
Wheat plant response rating (wheat; [4]): 0
Wheat plant response rating (wheat; [5]): 0
Wheat plant response rating (wheat; [6]): 0
Plant response rating, Wheat (wheat; [7]): 0
Wheat plant response rating (wheat; [8]): 0
